# Data taken from PMC10614203, “Synthesis, Structure–Activity Relationships, Radiofluorination, and Biological Evaluation of [^18F]RM365, a Novel Radioligand for Imaging the Human Cannabinoid Receptor Type 2 (CB2R) in the Brain with PET” (Journal of Medicinal Chemistry, 2023).
# Target: T1, rat CB2R (Rattus norvegicus, UniProt Q9QZN9)
# T1 construct: one spleen from a female SPRD rat expressing high levels of the receptor in the leukocytes; from tissue; host or cells: rat spleen (female SPRD rat; autoradiography also described with male F433 rats)
# T1 sequence (Q9QZN9 1-360): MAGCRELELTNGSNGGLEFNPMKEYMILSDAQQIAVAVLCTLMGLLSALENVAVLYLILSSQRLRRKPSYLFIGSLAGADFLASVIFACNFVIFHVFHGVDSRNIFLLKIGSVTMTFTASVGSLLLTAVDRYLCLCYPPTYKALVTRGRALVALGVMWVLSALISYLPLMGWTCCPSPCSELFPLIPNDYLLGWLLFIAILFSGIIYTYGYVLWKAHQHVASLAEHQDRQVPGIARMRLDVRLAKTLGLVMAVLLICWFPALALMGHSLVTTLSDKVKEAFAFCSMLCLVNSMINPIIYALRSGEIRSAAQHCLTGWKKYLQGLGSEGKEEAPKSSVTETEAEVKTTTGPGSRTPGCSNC
# Test: In vitro autoradiography on rat spleen cryosections
# Assay type: binding
# Settings: Figure S2
# Excerpt: To complement the indirect determination of the affinity of RM365 toward the CB2R in vitro, we performed a direct binding study with the radiofluorinated ligand using preparations of CHO cells stably transfected with the cloned human receptor and one spleen from a female SPRD rat expressing high levels of the receptor in the leukocytes.[12] The results of the homologous competition study shown in Figure 6 confirm the good affinity of [^18F]RM365 toward the human CB2R with a KD value of about 2 nM. […] Furthermore, the measurement signal obtained from the incubation of [^18F]RM365 with the homogenate of rat spleen was in the range of the values obtained for the nonspecific binding of the radioligand toward the preparation of CB2R-transfected CHO cells. We conclude that RM365 binds the rat CB2R with lower affinity than the human CB2R but expect no significant interactions of the radioligand with nonspecific binding sites.[82] Because of the available rat model to assess the potential of [^18F]RM365 to cross the blood–brain barrier and to specifically label human CB2R—the hCB2R(D80N) model with high expression of human CB2R in the brain[31],[32],[66],[83]—we intended to confirm the initial findings from the rat homogenate by an autoradiographic study.
# The in vitro autoradiographic experiments were performed according to a previously published protocol.[88] […]
smiles,measurement,value
CC1(C)Cc2ccc(C#N)cc2[C@@H]1NC(=O)c1cc2cc([18F])ccc2[nH]1 [[^18F]RM365],"specific interaction with rat CB2R in spleen cryosections, in words",absence of a specific interaction
